Assay results reported in article PMC4486710 (Parasites & Vectors, 2015).

T1: TcCAT1.1 (Trypanosoma cruzi, UniProt A0A0H4FPU8)
T1 construct: gene C3747_66g20; full-length ORF, untagged, pYES2, expressed in S. cerevisiae HSC100-3C (can1 gap1 lyp1); 10 predicted transmembrane helices
T1 sequence (A0A0H4FPU8 1-448): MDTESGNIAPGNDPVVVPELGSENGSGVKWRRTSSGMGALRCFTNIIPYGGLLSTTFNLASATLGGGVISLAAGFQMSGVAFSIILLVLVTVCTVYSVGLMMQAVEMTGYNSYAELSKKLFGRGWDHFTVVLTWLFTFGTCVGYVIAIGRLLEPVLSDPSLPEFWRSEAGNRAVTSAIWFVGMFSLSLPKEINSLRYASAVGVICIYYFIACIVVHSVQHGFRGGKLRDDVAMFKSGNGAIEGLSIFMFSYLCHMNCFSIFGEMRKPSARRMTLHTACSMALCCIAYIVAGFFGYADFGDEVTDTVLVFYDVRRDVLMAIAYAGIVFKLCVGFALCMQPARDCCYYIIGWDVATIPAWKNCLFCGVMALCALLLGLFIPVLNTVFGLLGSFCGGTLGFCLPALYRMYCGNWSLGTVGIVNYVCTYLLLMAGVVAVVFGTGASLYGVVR

B1: TcCAT1.1 (Trypanosoma cruzi) (protein)
chain: T1 sequence (A0A0H4FPU8 1-448)
notes: full-length ORF, untagged, pYES2, expressed in S. cerevisiae HSC100-3C (can1 gap1 lyp1); 10 predicted transmembrane helices

The molecules below were run against T1, TcCAT1.1 (assay: competition of [3H]-arginine uptake in transformed S. cerevisiae). Conditions: 1000 µM; 10 µM [3H]-arginine, 1 mM competitor, 30 min, room temperature.
Assay type: cell-based
From the text: competition of [3H]-arginine uptake in transformed S. cerevisiae on TcCAT1.1

Q: Which “[^3H]-Arginine uptake(%)” value does the source give for `NCCCNCCCCNCCCN` [spermine] here?
A: 65.0 ± 6.6%

Q: With `C[C@H](N)C(=O)O` [alanine] as the molecule, how does the “[^3H]-Arginine uptake(%)” value read?
A: 67.9 ± 2.6%

Q: How did the “[^3H]-Arginine uptake(%)” value turn out when `O=C(O)[C@@H]1CCCN1` [proline] was run?
A: 72.3 ± 12.1%

Q: Which “[^3H]-Arginine uptake(%)” value does the source give for `NC(=O)CC[C@H](N)C(=O)O` [glutamine] here?
A: 74.2 ± 25.6%

Q: How did the “[^3H]-Arginine uptake(%)” value turn out when `NC(=O)C[C@H](N)C(=O)O` [asparagine] was run?
A: 78.0 ± 6.1%

Q: With `NCCCC[C@H](N)C(=O)O` [lysine] as the molecule, how does the “[^3H]-Arginine uptake(%)” value read?
A: 78.0 ± 26.7%

Q: Which “[^3H]-Arginine uptake(%)” value does the source give for `N[C@@H](Cc1cnc[nH]1)C(=O)O` [histidine] here?
A: 67.3 ± 8.8%

Q: `N=C(N)NCCCC[C@H](N)C(=O)O` [homoarginine] was tested. Which “[^3H]-Arginine uptake(%)” value did it give?
A: 65.5 ± 12.1%

Q: How did the “[^3H]-Arginine uptake(%)” value turn out when `CC(C)C[C@H](N)C(=O)O` [leucine] was run?
A: 67.7 ± 16.2%

Same assay, conditions: 1000 µM; 10 µM [3H]-arginine, 1 mM competitor, 30 min, room temperature; possible substrate

Q: With `N=C(N)NOCC[C@H](N)C(=O)O` [canavanine] as the molecule, how does the “[^3H]-Arginine uptake(%)” value read?
A: 28.9 ± 6.3%

These molecules were tested on N=C(N)NCCC[C@H](N)C(=O)O (assay: radiolabelled uptake in transformed S. cerevisiae, Michaelis-Menten fit). Conditions: labelled compound; glucose-repressed background subtracted; three trials.
Assay type: cell-based, Trypanosoma cruzi
From the text: radiolabelled uptake in transformed S. cerevisiae, Michaelis-Menten fit on TcCAT1.1

Q: B1 was tested. Which Km did it give?
A: 85 ± 40 µM
